Laboratory results taken from patent US7189750B2, “Thiazole-based nitric oxide donors having at least two thiazole moieties and uses thereof” (priority 2004, dated 2007).
Entries after “also recorded” stand apart in the source; their conditions may differ.

Columns and labels:
[1] = tested on: isolated rat aorta; assay: In vitro induction of tolerance and cross-tolerance: vasorelaxation of pre-exposed rat aortic rings; assay type: cell-based; conditions: for EC50: Rattus norvegicus; for tolerance induction in vitro: rings pre-treated with epinephrine and then with the same compound (0.44 mM)
Experimental: Aortic rings were prepared as described hereinabove, and were exposed to 0.44 mM GTN (vehicle was water:ethanol:propyleneglycol at proportional ratio of 1:1:1) for 1 hour before CCRC construction, to thereby induce tolerance to nitroglycerine. At the end of the tolerance induction period, rings were thrice washed with the path buffer (Krebs-bicrbonate) every 15 minutes for the following hour and then CCRC for vasorelaxation on GTN-induced tolerance rings were constructed for GTN (pretreated versus untreated rings, FIG. 15), in order to verify the ability to induce and measure GTN tolerance induction in vitro
Attempted induction of tolerance to the NO-donating compounds of the present invention was performed under the same conditions as for GTN. Thus, in an exemplary experiment, rings were exposed to 0.44 mM solution of Pet-3 in the attempt to induce tolerance for Pet-3. CCRC were then measured for the vasorelaxing effect of Pet-3 on a group of rings which were pre-exposed to Pet-3 as to induce tolerance to Pet-3, and for an untreated control group. The above protocol was repeated with Pet-2, Pet-7, Pet-8, Pet-12, Pet-24, Pet-43, Pet-149 and Pet-152.
Cross-tolerance studies were conducted using the same technique described above for measuring vasorelaxation of aortic rings from rats. Two groups of aortic rings samples were pre-treated with GTN, then one group was measured for vasorelaxation by GTN and the second group for vasorelaxation by Pet-12, an exemplary NO-donor according to the present invention. For the opposite cross-tolerance studies, two groups of aortic rings samples were pre-treated with Pet-12, then one group was measured for vasorelaxation by GTN and the second group for vasorelaxation by Pet-12.

[2] = tested on: c-GMP in slices of thoracic aorta of rats; assay: Cyclic-GMP measurement in aortic rat tissue (radioimmunoassay); assay type: cell-based; conditions: rat aorta; for cGMP Post-infusion: post-infusion (repeated treatment)
Experimental: GTN (10^−6 M) was added to the chamber and, 1 minute after exposure to the drug, rings (usually 3–5) were taken, wrapped with aluminum foil and immediately frozen in liquid nitrogen for storage. Control sample group was treated with the vehicle solution only. At the time of analysis, rings were thawed, blotted over a dry gauzed and weighted. A known weight of tissue was homogenized in 2 ml ice-cold modified Hank's balanced salt solution containing (in gram/liter) NaCl 8; KCl 0.4; glucose 1; KH2PO4 0.06; Na2HPO4 0.047; Phenol red 0.017 and further containing 25 mM EDTA (disodium salt). The homogenate was centrifuged at 4000 g (force units) for 10 minutes at 2–4° C. and the supernatant was thereafter transferred into fresh pre-cooled test tube containing 1 ml of acetonitrile. The tubes were vortex mixed for a few seconds and subsequently centrifuged at 4000 g for 5 minutes at 2–4° C., to remove the precipitated protein. Each supernatant was transferred into a clean test tube and evaporated to dryness under a stream of nitrogen at 55° C. The dry residue was reconstituted with 10 volumes of Tris-EDTA buffer pH 7.5 (0.05 M Tris containing 4 mM EDTA). Aliquots of 100 μl of the reconstituted solution in duplicate were used for c-GMP measurements using Amersham RIA kit, as is described in Haj-Yehia & Benet [Pharmacology, 1995, 273, 1, pp. 94–100]. Standard curves were plotted with six concentrations (0, 0.5, 1, 2, 4 and 8 pmoles of c-GMP per tube).
The NO-tolerance effect of GTN and NO-donor compounds according to the present invention was measured by following the production of c-GMP in slices of thoracic aorta of rats. Thus, the production of c-GMP was measured as described in the methods section above for the reference NO-donor compound GTN, and for the NO-donors of the present invention Pet-2, Pet-3, Pet-7, Pet-8, Pet-10, Pet-12, Pet-24, Pet-59, Pet-147, Pet-149, Pet-152, Pet-154 and Pet-155.

[3] = tested on: isolated rat aorta; assay: In vitro vasorelaxation of epinephrine-contracted rat aortic rings (CCRC); assay type: cell-based
Excerpt: Male Sprague Dawley rats were anaesthetized using intraperitoneal injection of ketamine and xylazine (50 and 10 milligram per kilogram, respectively) and the thoracic aorta, the large upper portion of the descending aorta, starting at the caudal border of the chest bone, was removed thereafter, while carefully removing the paraadventetial tissue surrounding the vessel. Aortae were cut into rings of 4–5 millimeters and mounted onto the tissue path. The path buffer (Krebs-bicrbonate) was constantly gassed with carbogen and maintained at 37° C. The rings were preloaded under 2 g tension and equilibrated for 90 minutes, while refreshing the buffer every 15 minutes. After stabilization, the rings were contracted with epinephrine (1 μM). Cumulative Concentration-Response Curves (CCRC) were measured for the vasorelaxing effect induced by adding various concentrations, ranging from 10^−10 M to 10^−5 M of Pet-2, Pet-3, Pet-7, Pet-8, Pet-12, Pet-24, Pet-43, Pet-59, Pet-147, Pet-152 and Pet-154, and glyceryltrinitrate (GTN), according to the procedure described in Feelich et al., Molecular Pharmacology, 56:243–253 (1999). The vehicle, which was used for this experiment was water:ethanol:propyleneglycol at proportional ratio of 1:1:1.
The vasorelaxing effect of the thiazole-derived NO-donors according to the present invention was measured on slices of thoracic aorta of rats contracted with epinephrine, as described hereinabove.

[4] = tested on: Male Sprague Dawley rats; assay: Induction of in vivo nitrate tolerance: cGMP in aorta of rats infused with the compound; design: species or system rat; conditions: for level of cGMP following a repeated treatment in vivo: aorta of rats pre-treated in vivo, re-exposed to 1 μM; for in vivo tolerance induction: cGMP in aorta of rats pre-treated in vivo with the compound, 200 μg/hour for 16 hours
Experimental: For c-GMP levels and tolerance development, the rat's thoracic aorta was isolated after exposure to the tested compound in vivo, and measured as described above in the in vitro assays.
Male Sprague Dawley rats (220 to 250 grams) were housed under constant temperature and humidity conditions. Light was maintained at a 12/12 light dark cycle. Except for 12 hours before the experiment, when food fasting was initiated, all rats had free access to standard rat pellet diet and tap water. The animals were anesthetized by intraperitoneal injection of ketamine and xylazine combination (50 and 10 milligram per kilogram, respectively). […] The catheters were filled with normal saline solution containing 1000 IU/ml of heparin and plugged with a metal pin. Catheters were externalized to the back of the neck region and secured by a polyester felt disk.
After implantation, the rats were individually housed until they regained their preoperative weight and appeared healthy (3 to 4 days post-operation). At this time point (day 0), an osmotic mini-pump (Alza Corp., Palo Alto, Calif.) delivering constant volume (10 μl/hour) of vehicle or drug was connected to one of the intravenous catheters.
For inducing tolerance to the tested NO-donor according to the present invention, the animals received 200 μg/hour of the tested compound for 16 hours (short-term-induced tolerance). A similar number of animals were processed by the same surgical procedure and received the vehicle alone (10 μl/hour of a solution consisting of 30% ethanol and 30% propylene glycol in sterile distilled water for injection).
At the end of the infusion periods used for the development of tolerance (16 hour), the rats were anesthetized as described above, the two catheters were externalized and the delivering catheters were disconnected from the mini-pump. The abdomen was opened by midline incision and the thoracic aorta were isolated, washed and cleaned from the surrounding tissues. Strips of the treated aortas were pooled in chambers containing Krebs-Hanseliet buffer (10 ml), and exposed to 1 μM of the tested NO-donor (final concentration) for 120 seconds. The tissues were quickly collected and frozen in liquid nitrogen for cGMP measurement, described hereinabove.

[5] = tested on: anesthetized hypertensive Sprague-Dawley male rats; assay: Hypotensive effects: mean arterial pressure after iv bolus in phenylephrine-treated rats; assay type: in vivo; conditions: rat
Experimental: Mean arterial pressure (MAP) was monitored and determined during bolus infusion of Pet-2, Pet-3, Pet-7, Pet-8, Pet-12 and Pet-13. Briefly, polyethylene catheters (PE50) were inserted into the carotid artery and into the jugular vein of anesthetized hypertensive Sprague-Dawley male rats (200–300 grams). A blood pressure recorder was placed within the carotid artery. Phenylephrine (0.1 mg) was then injected and the mean arterial blood pressure (MABP) was monitored continuously until a stable baseline was reached. The hypotensive effects of intravenous (iv) bolus doses (0.1 mg of each tested compound) administered intravenously at the jugular vein in minimal volume of vehicle (0.2 ml per dose) were evaluated. Five minutes were allowed between each dose, during which the maximal decrease in MAP was recorded and a dose-response graph comparing the hypotensive effect of the compounds was constructed.

[6] = vasorelaxation of rings pre-exposed to 0.44 mM of the same compound for 1 hour, given as negative log value, read-out: EC50 (converted)
[7] = vasorelaxation of rings pre-exposed to 0.44 mM of the same compound for 1 hour, read-out: Concentration
[8] = vasorelaxation, rat aortic rings contracted with 1 μM epinephrine, 10^−10 M to 10^−5 M, read-out: Concentration
[9] = vasorelaxation, rat aortic rings contracted with 1 μM epinephrine, given as negative log value, read-out: EC50 (converted)

CCc1nc(C)c(CCO[N+](=O)[O-])s1 [Pet-2, 2-Ethyl-4-methyl-5-(2-nitrooxy-ethyl)-thiazole]
EC50 ([1]; 1 h): 39.8 nM
EC50 ([1]; 1 h, read-out: Concentration): 39.8 nM
cGMP Post-infusion [2]: 140 ± 13 pmol/g tissue
cGMP Pre-infusion [2]: 143 ± 13 pmol/g tissue
EC50 ([3]; Rattus norvegicus): 25.1 nM
EC50 ([3]; Rattus norvegicus, read-out: Concentration): 25.1 nM
vasorelaxation effect as compared with glyceryltrinitrate ([3]; isolated rat aorta, 1 μM epinephrine): superior
level of cGMP following a repeated treatment in vivo [4]: remained substantially unchanged
in vivo tolerance induction [4]: absence of tolerance induction; also recorded: absence of tolerance effect

O=[N+]([O-])OCC(CO[N+](=O)[O-])O[N+](=O)[O-] [GTN, glyceryl trinitrate, reference compound]
EC50 [1, 6]: 31.6 nM
EC50 [1, 7]: 44.7 nM
tolerance induction in vitro [1]: tolerance induced
c-GMP level following a repeated treatment [2]: significantly reduced
cGMP Post-infusion [2]: 45 ± 12 pmol/g tissue
cGMP Pre-infusion [2]: 127 ± 11 pmol/g tissue
EC50 [3, 8]: 44.7 nM
EC50 [3, 9]: 28.2 nM
level of cGMP following a repeated treatment in vivo [4]: decreased
in vivo tolerance induction [4]: tolerance inducing effect
hypotensive effect on MAP following successive administrations [5]: attenuation

Cc1nc(-c2cccnc2)sc1CCO[N+](=O)[O-] [Pet-12, 3-[4-Methyl-5-(2-nitrooxy-ethyl)-thiazole-2-yl]-pyridine]
EC50 [1, 6]: 63.1 nM
EC50 [1, 7]: 63.1 nM
vasorelaxation in rings pre-treated with GTN (cross-tolerance, words) ([1]; rings made tolerant to GTN): absence of tolerance induction effect; also recorded: no effect
tolerance after pre-treatment with Pet-12, to itself and to GTN ([1]; rings pre-treated with Pet-12): absence of tolerance induction effect; also recorded: does not evoke tolerance
tolerance induction in vitro [1]: absence of tolerance induction
cGMP Post-infusion [2]: 112 ± 12 pmol/g tissue
cGMP Pre-infusion [2]: 127 ± 11 pmol/g tissue
EC50 [3, 8]: 39.8 nM
EC50 [3, 9]: 39.8 nM
in vivo tolerance induction [4]: absence of tolerance induction; also recorded: absence of tolerance effect; also recorded: lack of tolerance induction
